What was measured:
Experiment in all cases: Cell line panel 1 viability screen
Assay type in all cases: cell-based
MKN1 = MKN1 (Stomach)
Procedure: (§1) To support clinical development and identify potential biomarkers of tumor sensitivity or resistance, two large cancer cell line panels (Panel 1, N=653 (McDermott et al. (2007) PNAS 104:19936-19941); Panel 2, N=240 (O'Day et al. (2010) Fourth AACR International Conference on Molecular Diagnostics in Cancer Therapeutic Development)) were treated with MLN4924 and cell viability data (IC50, EC50, and POC—Percentage of Control) were generated.
(§2) Panel 1 (McDermott et al., supra). The cell lines were exposed to three MLN4924 concentrations (20 nM, 200 nM, and 2 μM) for 72 hours. Viability, i.e., cell number, was quantified by measuring fluorescence of a cell-permeant nucleic acid stain. Mean of triplicate values for each sample were taken and compared to DMSO control to calculate percentage of control. In the results, control or no activity value is given a value of about 1, sensitivity is indicated by a value less than 1, with 0 as death of the entire cell population and resistance indicated by a value greater than 1. A continuum of viability values was obtained for each concentration, so some values were selected as cut-offs for final determination of sensitivity or resistance. For example, median POC values of less than the median value of all POC's recorded in the panel (<0.34) indicated sensitivity, values of 0.34 to 0.75 indicated borderline sensitivity, values greater than the 3rd quartile of all POC's in the panel (>0.75) insensitivity or resistance. […] Final judgment of cell line as sensitive, insensitive or resistant was determined by its viability at 2 μM.

SW 1463 = system: SW 1463
Procedure: as §1, §2

RCM-1 = system: RCM-1
Procedure: as §1, §2

NCl-H630 = NCl-H630 (intestine); 2 μM MLN4924, 72 hours; DMSO control about 1
Procedure: as §1, §2

LS-174T = LS-174T (large_intestine)
Procedure: as §1, §2

ESS-1 = ESS-1 (Uterus)
Procedure: as §1, §2

647-V = 647-V (urinary_tract)
Procedure: as §1, §2

KYSE-450 = KYSE-450 (oesophagus)
Procedure: as §1, §2

8505C = 8505C (thyroid)
Procedure: as §1, §2

HCC1806 = HCC1806 (breast)
Procedure: as §1, §2

MDA-MB-468 = MDA-MB-468 (breast)
Procedure: as §1, §2

HuCCT1 = HuCCT1 (Liver)
Procedure: as §1, §2

FADU = FADU (upper aerodigestive tract)
Procedure: as §1, §2

NUGC-3 = NUGC-3 (stomach)
Procedure: as §1, §2

YAPC = YAPC (pancreas)
Procedure: as §1, §2

NCl-H520 = NCl-H520 (lung NSCLC); 2 μM MLN4924, 72 hours; DMSO control about 1
Procedure: as §1, §2

SW1573 = SW1573 (lung)
Procedure: as §1, §2

MKN28 = settings: Homo sapiens, MKN-28; MKN28 (stomach); 2 μM MLN4924, 72 hours; DMSO control about 1
Procedure: as §1, §2

[1] = Homo sapiens, 2 μM MLN4924, 72 hours, DMSO control about 1

`NS(=O)(=O)OC[C@@H]1C[C@@H](n2ccc3c(N[C@H]4CCc5ccccc54)ncnc32)C[C@@H]1O` [MLN4924, ((1S,2S,4R)-4-{4-[(1S)-2,3-dihydro-1H-inden-1-ylamino]-7H-pyrrolo[2,3-d]pyrimidin-7-yl}-2-hydroxycyclopentyl)methyl sulphamate] was tested, and the viability at 2 µM (MKN1; Homo sapiens, MKN-1, 2 μM MLN4924, 72 hours, DMSO control about 1) was 46.3%, the Phenotype (MKN1; FBXW7 mutant) was “insensitive (values of 0.34 to 0.75 indicated borderline sensitivity)” and the viability at 2 µM (SW 1463; Homo sapiens, SW 1463 / SW1463 (intestine), 2 μM MLN4924, 72 hours, DMSO control about 1) was 89.6%. For the same compound, the Phenotype (SW 1463; SW1463 (Intestine), FBXW7 mutant) was “resistant (values greater than the 3rd quartile of all POC's in the panel (>0.75) insensitivity or resistance)”, the viability at 2 µM (RCM-1; Homo sapiens, RCM-1 (intestine), 2 μM MLN4924, 72 hours, DMSO control about 1) was 76.7% and the Phenotype (RCM-1; RCM-1 (Intestine), FBXW7 mutant) was “resistant (values greater than the 3rd quartile of all POC's in the panel (>0.75) insensitivity or resistance)”. For the same compound, the viability at 2 µM (NCl-H630) was 75%, the viability at 2 µM (LS-174T; Homo sapiens, LS174T, 2 μM MLN4924, 72 hours, DMSO control about 1) was 32.6% and the Phenotype (LS-174T; KDM6A mutant) was “sensitive (median POC values of less than the median value of all POC's recorded in the panel (<0.34) indicated sensitivity)”. The Phenotype (ESS-1; FBXW7 mutant) was “sensitive (median POC values of less than the median value of all POC's recorded in the panel (<0.34) indicated sensitivity)”, the viability at 2 µM (ESS-1; [1]) was 5.29% and the Phenotype (647-V; NF2 mutant) was “sensitive (median POC values of less than the median value of all POC's recorded in the panel (<0.34) indicated sensitivity)”. For the same compound, the viability at 2 µM (647-V; [1]) was 3.8%, the viability at 2 µM (KYSE-450; [1]) was 14.3% and the Phenotype (KYSE-450; KDM6A mutant) was “sensitive (median POC values of less than the median value of all POC's recorded in the panel (<0.34) indicated sensitivity)”. The Phenotype (8505C; NF2 mutant) was “sensitive (median POC values of less than the median value of all POC's recorded in the panel (<0.34) indicated sensitivity)”, the viability at 2 µM (8505C; [1]) was 14.1% and the Phenotype (HCC1806; KDM6A mutant) was “sensitive (median POC values of less than the median value of all POC's recorded in the panel (<0.34) indicated sensitivity)”. The viability at 2 µM (HCC1806; [1]) was 1.16%, the viability at 2 µM (MDA-MB-468; [1]) was 29.6% and the Phenotype (MDA-MB-468; SMAD4 mutant) was “sensitive (median POC values of less than the median value of all POC's recorded in the panel (<0.34) indicated sensitivity)”. For the same compound, the viability at 2 µM (HuCCT1; Homo sapiens, HuCCT-1, 2 μM MLN4924, 72 hours, DMSO control about 1) was 12.6%, the Phenotype (HuCCT1; FBXW7 mutant) was “sensitive (median POC values of less than the median value of all POC's recorded in the panel (<0.34) indicated sensitivity)” and the Phenotype (FADU; SMAD4 mutant) was “sensitive (median POC values of less than the median value of all POC's recorded in the panel (<0.34) indicated sensitivity)”. The viability at 2 µM (FADU; [1]) was 7.3%, the viability at 2 µM (NUGC-3; [1]) was 9.8% and the Phenotype (NUGC-3; NF2 mutant) was “sensitive (median POC values of less than the median value of all POC's recorded in the panel (<0.34) indicated sensitivity)”. For the same compound, the viability at 2 µM (YAPC; [1]) was 18.7%, the Phenotype (YAPC; SMAD4 mutant) was “sensitive (median POC values of less than the median value of all POC's recorded in the panel (<0.34) indicated sensitivity)” and the viability at 2 µM (NCl-H520) was 55.8%. For the same compound, the viability at 2 µM (SW1573; [1]) was 11.1%, the Phenotype (SW1573; NF2 and SMAD4 mutant) was “sensitive (median POC values of less than the median value of all POC's recorded in the panel (<0.34) indicated sensitivity)” and the viability at 2 µM (MKN28) was 28.5%.

— patent US20150119410A1, “BIOMARKERS OF RESPONSE TO NAE INHIBITORS” (MILLENNIUM PHARMACEUTICALS, INC., priority 2011, published 2015)
